Experimental data from US7999119B2, “Compounds having CRTH2 antagonist activity” (Oxagen Limited, priority 2006, dated 2011).
pIC50: −log10 of the molar value. “And” between values parts separate entries of the source, which are not always exact repeats. Identical values can stand only once. Like-named read-outs stand apart in the source and are kept apart here.

Experiments:
[1] = Pharmacokinetics following oral administration in the rat; type: in vivo
Method: Investigation of Pharmacokinetics of Compounds of General Formula (I) Following Oral Administration in the Rat
Rats were weighed on the day of dosing.
The test material was prepared as a 0.3 mg/mL suspension in 1% carboxy-methyl-cellulose (CMC).
Three groups of 3 rats were dosed as follows:
Doses were administered as a single oral dose using a gavage tube at a constant dose volume of 10 mL/kg.
At each sampling time point blood samples (approximately 0.3 mL) was taken from a catheter inserted into a lateral tail vein prior to the start of the experiment. The final blood sample (approximately 2 mL) from each animal was taken by cardiac puncture under isoflurane anaesthesia following which the animal was killed by exsanguination. Blood samples were taken into individual heparinised containers. Blood samples were collected at the following times post-dose:
Following collection, the blood samples were centrifuged (approximately 10,000×g, 2 min at 4° C.) and the plasma stored as one aliquot at approximately −20° C. pending analysis of drug concentrations by LC-MS/MS.
The plasma samples were analysed for test material concentrations at BioDynamics using an LC-MS/MS method developed at BioDynamics.

[2] = tested on: PGD2 induced eosinophil shape change; assay: Human whole blood eosinophil shape change assay; type: cell-based; settings: Homo sapiens, Eosinophil
Summary of the method: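 Compound added to human whole blood and incubated 15 min at 37° C., 5% CO2, before cell fixation and red-cell lysis. Leukocytes analysed by FACS, eosinophils gated by autofluorescence, 2000 events per sample, triplicate; read-out is inhibition of PGD2-induced eosinophil shape change.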

[3] = tested on: DK-PGD2-induced blood eosinophilia; assay: Inhibition of DK-PGD2-induced blood eosinophilia in rats; type: in vivo, rat; settings: female rats, oral dosing 30 min before 10 μg DK-PGD2 intracardiac; ED50 from dose-response curve; the values are: ED50
Method: Evaluation of Compounds of General Formula (I) as Inhibitors of 13,14-dihydro-15-keto prostaglandin D2 (DK-PGD2)-Induced Blood Eosinophilia in Rats
The test compound was dissolved in DMSO and diluted with water to give a final dosing volume of 2 ml/kg.
Female rats (175-250 g; UH colony) were dosed orally with test compound (or vehicle).
30 min after dosing all animals were anaesthetised with isoflurane.
Following induction of anaesthesia, animals receive an intracardiac injection of 10 μg DK-PGD2 in 0.3 ml heparinised (10 U/ml) saline. Control animals received an injection of 0.3 ml heparinised saline.
60 min after the intracardiac injection, animals were injected with an overdose of pentobarbitone sodium and a blood sample was taken (into heparin) by cardiac puncture while the rat was anaesthetised but not dead.
An aliquot of blood (100 μl) was added to Turk's solution and the total leukocyte count determined with a haemocytometer.
A further aliquot of blood (500 μl) was mixed with an equal volume of 4% Dextran (mw 500,000) and the erythrocytes allowed to settle. A cytospin preparation was made from the resulting leukocyte rich fraction.
Cytospin preparations were fixed with methanol (5 min) and stained with May-Grunwald (5 min) and Giemsa (15 min) stains. Finally cytospins were washed in phosphate buffer (pH6.8) and air dried.
Differential leukocyte counts were obtained from the cytospin preparations.
Blood eosinophil numbers were determined from the total leukocyte count and the percentage eosinophils (differential count).
Because it was impractical to generate sufficient data in any given experiment, data were obtained over a number of replicate experiments. Data from these replicate experiments were pooled, to provide at least 5 animals in each group and a dose-response curve fitted following a significance test (Mann Whitney) to determine whether or not DK-PGD2 caused a significant increase in blood eosinophils (GraphPad, Prism). A difference between groups was taken to be significant when P<0.05. ED50 values were calculated from the dose-response curve.

[4] = rat, 3 mg/kg p.o, individual male animals, 3 mg/kg

concentration at 0.25 h ([1]; male, rat, plasma, po, 3 mg/kg, rat, 3 mg/kg oral, 0.25 h, individual male animals, read-out: Concentration in Blood): 91.8 ng/mL | concentration at 0.25 h ([1]; male, rat, plasma, po, 3 mg/kg, rat, 3 mg/kg oral, 0.25 h, mean, read-out: Concentration in Blood, Mean): 87.6 ng/mL | concentration at 0.5 h ([1]; male, rat, plasma, po, 3 mg/kg, rat, 3 mg/kg oral, 0.5 h, individual male animals, read-out: Concentration in Blood): 121 ng/mL | concentration at 0.5 h ([1]; male, rat, plasma, po, 3 mg/kg, rat, 3 mg/kg oral, 0.5 h, mean, read-out: Concentration in Blood, Mean): 140 ng/mL | concentration at 1 h ([1]; male, rat, plasma, po, 3 mg/kg, rat, 3 mg/kg oral, 1 h, individual male animals, read-out: Concentration in Blood): 252 ng/mL | concentration at 1 h ([1]; male, rat, plasma, po, 3 mg/kg, rat, 3 mg/kg oral, 1 h, mean, read-out: Concentration in Blood, Mean): 255 ng/mL | concentration at 2 h ([1]; male, rat, plasma, po, 3 mg/kg, rat, 3 mg/kg oral, 2 h, mean, read-out: Concentration in Blood, Mean): 381 ng/mL | concentration at 4 h ([1]; male, rat, plasma, po, 3 mg/kg, rat, 3 mg/kg oral, 4 h, mean, read-out: Concentration in Blood, Mean): 283 ng/mL | concentration at 6 h ([1]; male, rat, plasma, po, 3 mg/kg, rat, 3 mg/kg oral, 6 h, mean, read-out: Concentration in Blood, Mean): 182 ng/mL | concentration at 8 h ([1]; male, rat, plasma, po, 3 mg/kg, rat, 3 mg/kg oral, 8 h, mean, read-out: Concentration in Blood, Mean): 114 ng/mL | concentration at 12 h ([1]; male, rat, plasma, po, 3 mg/kg, rat, 3 mg/kg oral, 12 h, mean, read-out: Concentration in Blood, Mean): 27.3 ng/mL | concentration at 24 h ([1]; male, rat, plasma, po, 3 mg/kg, rat, 3 mg/kg oral, 24 h, individual male animals, read-out: Concentration in Blood): 0 ng/mL | concentration at 24 h ([1]; male, rat, plasma, po, 3 mg/kg, rat, 3 mg/kg oral, 24 h, mean, read-out: Concentration in Blood, Mean): 0 ng/mL | Tmax ([1]; male, rat, plasma, po, 3 mg/kg, rat, 3 mg/kg p.o, individual male animals, read-out: Tmax): 2 h | half-life ([1]; male, rat, plasma, po, 3 mg/kg, rat, 3 mg/kg p.o, individual male animals, read-out: T½ (converted)): 205 min | AUC(0-inf) ([1]; male, rat, plasma, po, 3 mg/kg, rat, 3 mg/kg p.o, mean, summary without unit (Table 12), read-out: AUCinf (mean)): 2200 ng·h/mL | Cmax ([1]; male, rat, plasma, po, 3 mg/kg, rat, 3 mg/kg p.o, mean, summary without unit (Table 12), read-out: Cmax (mean)): 381 ng/mL | AUC(0-inf) ([1]; male, rat, plasma, po, 3 mg/kg, rat, 3 mg/kg p.o, mean, read-out: AUCinf, Mean): 2200 ng·h/mL | Cmax ([1]; male, rat, plasma, po, 3 mg/kg, rat, 3 mg/kg p.o, mean, read-out: Cmax, Mean): 381 ng/mL | Tmax ([1]; male, rat, plasma, po, 3 mg/kg, rat, 3 mg/kg p.o, mean, read-out: Tmax, Mean): 2 h | half-life ([1]; male, rat, plasma, po, 3 mg/kg, rat, 3 mg/kg p.o, mean, read-out: T½, Mean (converted)): 144 min | Fold over IC50 at 24 h ([1]; mean blood concentration at 24 h (rat, 3 mg/kg p.o.) divided by whole blood IC50 in ng/ml): 0 | Concentration in Blood ([1]; rat, 3 mg/kg oral, 0.25 h, individual male animals, 3 mg/kg): 113.6 ng/mL and 57.3 ng/mL | Concentration in Blood ([1]; rat, 3 mg/kg oral, 0.5 h, individual male animals, 3 mg/kg): 165.7 ng/mL and 132.1 ng/mL | Concentration in Blood ([1]; rat, 3 mg/kg oral, 1 h, individual male animals, 3 mg/kg): 295.1 ng/mL and 217.5 ng/mL | Concentration in Blood ([1]; rat, 3 mg/kg oral, 12 h, individual male animals, 3 mg/kg): 36.5 ng/mL and 31.0 ng/mL and 14.5 ng/mL | Concentration in Blood ([1]; rat, 3 mg/kg oral, 24 h, individual male animals): 0 ng/mL | T½ [1, 4]: 1.80 h and 1.86 h | AUCinf (mean) ([1]; rat, 3 mg/kg p.o, mean, summary without unit (Table 12), 3 mg/kg, in ng·h/mL): 2198 | pIC50 ([2]; 10 nm PGD2-induced eosinophil shape change, human whole blood, read-out: Whole Blood IC50): 8.10 | pIC50 ([2]; Table 12 summary of whole blood eosinophil shape change IC50, read-out: IC50 (μmol)): 8.10 | IC50 ([2]; whole blood eosinophil shape change IC50 converted to ng/mL, read-out: IC50): 3 ng/mL | pIC50 ([2]; read-out: IC50 in the whole blood eosinophil shape change assay): 8.10
Structure (SMILES): Cc1c(Cc2ccc(S(C)(=O)=O)cc2)c2cc(F)ccc2n1CC(=O)O [Compound B, [5-Fluoro-3-(4-methanesulfonyl-benzyl)-2-methyl-indol-1-yl]-acetic acid, reference compound]
Concentration in Blood ([1]; rat, 3 mg/kg oral, 2 h, individual male animals, 3 mg/kg): 349.9 ng/mL and 536.9 ng/mL and 256.2 ng/mL | Concentration in Blood ([1]; rat, 3 mg/kg oral, 4 h, individual male animals, 3 mg/kg): 179.4 ng/mL and 485.2 ng/mL and 184.9 ng/mL | Concentration in Blood ([1]; rat, 3 mg/kg oral, 6 h, individual male animals, 3 mg/kg): 128.3 ng/mL and 292.2 ng/mL and 125.8 ng/mL | Concentration in Blood ([1]; rat, 3 mg/kg oral, 8 h, individual male animals, 3 mg/kg): 72.1 ng/mL and 184.5 ng/mL and 84.7 ng/mL | AUCinf [1, 4]: 1831.4 ng·h/mL and 3256.1 ng·h/mL and 1505.1 ng·h/mL | Cmax [1, 4]: 349.9 ng/mL and 536.9 ng/mL and 256.2 ng/mL | Potency in inhibition of DK-PGD2-induced blood eosinophilia [3]: 17 mg/kg
